Results as given in patent US10017827B2, “Herbicide-resistant sunflower plants with multiple herbicide resistant alleles of AHASL1 and methods of use” (BASF AGROCHEMICAL PRODUCTS B.V., priority 2007, dated 2018).
Like-named read-outs stand apart in the source and are kept apart here. Marks after values point to notes of the source that are not given here.

Legend:
[1] = system: sunflower line GM1606 (A122T/A122T); test: Greenhouse whole-plant response to metsulfuron; settings: 14 DAT
[2] = system: sunflower hybrid cmsGM40xL4 (A122T/A122T); test: Greenhouse whole-plant response to metsulfuron; settings: 14 DAT
[3] = system: sunflower line GM40 (A122T/A122T); test: Greenhouse whole-plant response to metsulfuron; settings: 14 DAT
[4] = system: sunflower hybrid cmsGM40xBTSu-R1 (A122T/P197L); test: Greenhouse whole-plant response to metsulfuron; settings: 14 DAT
[5] = system: sunflower line L4 (A122T/A122T); test: Greenhouse whole-plant response to metsulfuron; settings: 14 DAT
sunflower line B770 (WT) = test: Greenhouse whole-plant response to metsulfuron; settings: 14 DAT
[6] = system: AHAS enzyme, WT line (B7); test: Enzyme assay for AHAS activity, Sets 1 and 2; settings: 100 μM imazamox
[7] = system: sunflower line L4 (A122T); test: Greenhouse whole-plant response to imazapyr; format: in vivo; settings: 14 DAT
From the text: (§1) Experiment was arranged as a randomized block design with a full factorial (sunflower line×treatment) arrangement of treatments and 10 replications.

[8] = system: sunflower line L3 (cmsGM40, A122T); test: Greenhouse whole-plant response to imazapyr; format: in vivo; settings: 14 DAT
From the text: as §1

[9] = system: A122T sunflower genotypes (mean of H2, L3, L4); test: Greenhouse whole-plant response to imazapyr; format: in vivo; settings: 14 DAT
From the text: as §1

[10] = system: sunflower line GM40 (A122T); format: in vivo; settings: 160 gr/ha at V4, 14 DAT
[11] = system: sunflower line L5 (BTK 47, WT susceptible); settings: for biomass accumulation, % of untreated: L5, 14 DAT
[12] = A122T mean (H2,L3,L4), 2x (160 g ai/ha)
[13] = A122T mean (H2,L3,L4), 3x (240 g ai/ha)

SMILES: COC(=O)c1ccccc1S(=O)(=O)NC(=O)Nc1nc(C)nc(OC)n1 [metsulfuron]
- Dry Matter accumulation (DMA) ([1]; 1X (5 g ai./ha)): 30.39^b
- Mean Height Reduction (PH) ([1]; 1X (5 g ai./ha)): 21.55^a
- Phytotoxicity Index (PI, 0-9) ([1]; 1X (5 g ai./ha)): 8.70^d
- Dry Matter accumulation (DMA) ([1]; 2X (10 g ai./ha)): 20.45^a
- Mean Height Reduction (PH) ([1]; 2X (10 g ai./ha)): 21.70^a
- Phytotoxicity Index (PI, 0-9) ([1]; 2X (10 g ai./ha)): 9.00^d
- Dry Matter accumulation (DMA) ([2]; 1X (5 g ai./ha)): 19.90^a
- Mean Height Reduction (PH) ([2]; 1X (5 g ai./ha)): 22.45^a
- Phytotoxicity Index (PI, 0-9) ([2]; 1X (5 g ai./ha)): 8.67^d
- Dry Matter accumulation (DMA) ([2]; 2X (10 g ai./ha)): 18.23^a
- Mean Height Reduction (PH) ([2]; 2X (10 g ai./ha)): 20.56^a
- Phytotoxicity Index (PI, 0-9) ([2]; 2X (10 g ai./ha)): 8.82^cd
- Dry Matter accumulation (DMA) ([3]; 1X (5 g ai./ha)): 25.73^ab
- Mean Height Reduction (PH) ([3]; 1X (5 g ai./ha)): 21.39^a
- Phytotoxicity Index (PI, 0-9) ([3]; 1X (5 g ai./ha)): 9.00^d
- Dry Matter accumulation (DMA) ([3]; 2X (10 g ai./ha)): 20.69^a
- Mean Height Reduction (PH) ([3]; 2X (10 g ai./ha)): 21.17^a
- Phytotoxicity Index (PI, 0-9) ([3]; 2X (10 g ai./ha)): 9.00^d
- Mean Height Reduction (PH) ([4]; 1X (5 g ai./ha)): 77.04^b
- Phytotoxicity Index (PI, 0-9) ([4]; 1X (5 g ai./ha)): 0.00^a
- Dry Matter accumulation (DMA) ([4]; 2X (10 g ai./ha)): 72.66^c
- Dry Matter accumulation (DMA) ([5]; 1X (5 g ai./ha)): 25.40^ab
- Mean Height Reduction (PH) ([5]; 1X (5 g ai./ha)): 19.47^a
- Phytotoxicity Index (PI, 0-9) ([5]; 1X (5 g ai./ha)): 8.25^b
- Dry Matter accumulation (DMA) ([5]; 2X (10 g ai./ha)): 18.80^a
- Mean Height Reduction (PH) ([5]; 2X (10 g ai./ha)): 18.73^a
- Phytotoxicity Index (PI, 0-9) ([5]; 2X (10 g ai./ha)): 8.5^c
- Dry Matter accumulation (DMA) (sunflower line B770 (WT); 1X (5 g ai./ha)): 28.43^b
- Mean Height Reduction (PH) (sunflower line B770 (WT); 1X (5 g ai./ha)): 21.73^a*
- Phytotoxicity Index (PI, 0-9) (sunflower line B770 (WT); 1X (5 g ai./ha)): 8.50^bc
- Dry Matter accumulation (DMA) (sunflower line B770 (WT); 2X (10 g ai./ha)): 28.77^b
- Mean Height Reduction (PH) (sunflower line B770 (WT); 2X (10 g ai./ha)): 18.20^a
- Phytotoxicity Index (PI, 0-9) (sunflower line B770 (WT); 2X (10 g ai./ha)): 9.00^d

SMILES: COCc1cnc(C2=NC(C)(C(C)C)C(=O)N2)c(C(=O)O)c1 (stereo not shown) [imazamox]
- AHAS activity, % of untreated control ([6]; Set 1): 17%
- AHAS activity, % of untreated control ([6]; Set 2): 11%

SMILES: CC(C)C1(C)N=C(c2ncccc2C(=O)O)NC1=O (stereo not shown) [imazapyr]
- Phytotoxicity Index (0-9) ([7]; 0.5x (40 g ai/ha)): 0.0
- biomass accumulation, % of untreated ([7]; 0.5x (40 g ai/ha)): 100.0%
- plant height, % of untreated ([7]; 0.5x (40 g ai/ha)): 100.0%
- Phytotoxicity Index (0-9) ([7]; 1x (80 g ai/ha)): 0.0
- plant height, % of untreated ([7]; 1x (80 g ai/ha)): 100.0%
- Phytotoxicity Index (0-9) ([7]; 2x (160 g ai/ha)): 0.0
- biomass accumulation, % of untreated ([7]; 2x (160 g ai/ha)): 97.0%
- Phytotoxicity Index (0-9) ([7]; 3x (240 g ai/ha)): 0.0
- plant height, % of untreated ([7]; 3x (240 g ai/ha)): 97.0%
- Phytotoxicity Index (0-9) ([7]; 4x (320 g ai/ha)): 0.0
- Phytotoxicity Index (0-9) ([7]; 5x (400 g ai/ha)): 0.0
- Phytotoxicity Index (0-9) ([7]; 6x (480 g ai/ha)): 0.5
- Phytotoxicity Index (0-9) ([8]; 0.5x (40 g ai/ha)): 0.4
- Phytotoxicity Index (0-9) ([8]; 1x (80 g ai/ha)): 0.4
- Phytotoxicity Index (0-9) ([8]; 2x (160 g ai/ha)): 0.4
- plant height, % of untreated ([8]; 2x (160 g ai/ha)): 92.0%
- Phytotoxicity Index (0-9) ([8]; 3x (240 g ai/ha)): 0.5
- Phytotoxicity Index (0-9) ([8]; 4x (320 g ai/ha)): 1.0
- biomass accumulation, % of untreated ([8]; 4x (320 g ai/ha)): 75.0%
- Phytotoxicity Index (0-9) ([8]; 5x (400 g ai/ha)): 2.0
- Phytotoxicity Index (0-9) ([8]; 6x (480 g ai/ha)): 2.5
- height reduction, % of untreated controls ([9]; A122T homozygous, 0.5x): 0.1%
- height reduction, % of untreated controls ([9]; A122T homozygous, 6x): 18.8%
- reduction in biomass weight ([9]; A122T homozygous, higher dose (6x)): 25%
- Phytotoxicity Index (0-9) ([9]; A122T mean (H2,L3,L4), 0.5x (40 g ai/ha)): 0.3
- Phytotoxicity Index (0-9) ([9]; A122T mean (H2,L3,L4), 1x (80 g ai/ha)): 0.3
- Phytotoxicity Index (0-9) [9, 12]: 0.3
- plant height, % of untreated [9, 12]: 98.0%
- Phytotoxicity Index (0-9) [9, 13]: 0.3
- biomass accumulation, % of untreated [9, 13]: 90.0** %
- Phytotoxicity Index (0-9) ([9]; A122T mean (H2,L3,L4), 4x (320 g ai/ha)): 0.5
- Phytotoxicity Index (0-9) ([9]; A122T mean (H2,L3,L4), 5x (400 g ai/ha)): 0.8
- Phytotoxicity Index (0-9) ([9]; A122T mean (H2,L3,L4), 6x (480 g ai/ha)): 1.2
- Mean Phytotoxicity Index (PI, 0-9) [10]: 0.2
- biomass accumulation, % of untreated ([11]; 1x (80 g ai/ha)): 15.0%
- biomass accumulation, % of untreated ([11]; 2x (160 g ai/ha)): 15.0%
- biomass accumulation, % of untreated ([11]; 3x (240 g ai/ha)): 15.0%
- biomass accumulation, % of untreated ([11]; 4x (320 g ai/ha)): 15.0%
- biomass accumulation, % of untreated ([11]; 5x (400 g ai/ha)): 15.0%
- biomass accumulation, % of untreated ([11]; 6x (480 g ai/ha)): 15.0%
- Phytotoxicity Index (0-9) ([11]; in vivo): 9
